# US20100029604A1, “ANTIBACTERIAL COMBINATION AND ITS USE” (priority 2007, published 2010)
# Like-named read-outs stand apart in the source and are kept apart here.
# What was measured:
# [1] = tested on: M. catarrhalis BRO-2; test: Synergy MIC, inhibitor at 4 μg/mL (Example 3); type: cell-based, Moraxella catarrhalis; conditions: β-lactamase BRO-2 (Table 3 r18), inhibitor constant 4 μg/mL
# Protocol: (§1) Stock solutions of the test compounds and control antibiotics were prepared in distilled water according to the NCCLS guidelines [Methods for dilution antimicrobial tests for bacteria that grow aerobically. NCCLS document M7-A5; 2000; vol. 19. National Committee for Clinical Laboratory Standards, Villanova, Pa.]. All drug weights were corrected for salt forms and refer to the pure drug substance.
# (§2) All tested strains and Clinical isolates were either purchased from the American Type Culture Collection (ATCC), or from the in-house company culture collection.
# (§3) Stock cultures were prepared from broth cultures grown at 35° C. for 18-22 h without agitation and subsequent addition of 5% DMSO (v/v, final concentration) as cryoprotectant and stored frozen in liquid nitrogen. Mueller-Hinton II broth (MHBII) (BBL Cockeysville, Md.) was used for the testing procedure.
# (§4) The in vitro activities of the antibiotics were determined by the broth microdilution method and agar dilution technique as recommended by CLSI guidelines. The MIC experiments were performed in duplicate in 96-well microtiter plates using MHB. Serial twofold dilutions of each antibiotic either alone or in combination with a constant amount (4 μg/mL) of a β-lactamase inhibitor were prepared in MHBII broth. A sterile pipette tip was used to mix the contents of each well (one tip was used going from the low to the high concentration in the same column). The bacterial suspension with final inoculum 10^5 CFU/mL was transferred to the test medium containing the antibacterial substances by a multipoint inoculator (Dynatech, Chantilly, Va., USA). The plates were then incubated at 35° C. for 24 h.
# (§5) Representative compound of Formula (I) was evaluated against the serine-based Class A β-lactamases including TEM-type, SHV-type extended spectrum β-lactamases (ESBL) and various non-ESBL enzymes of enterobacteriaceae as well as BRO-type enzymes of Moraxella catarrhalis and penicillinases of Staphylococcus aureus.
# [2] = tested on: M. catarrhalis BRO-1; test: Synergy MIC, inhibitor at 4 μg/mL (Example 3); type: cell-based, Moraxella catarrhalis; conditions: M. catarrhalis, β-lactamase BRO-1 (Table 3 r17); inhibitor constant 4 μg/mL
# Protocol: as §1, §2, §3, §4, §5
# [3] = tested on: E. coli TEM-1; type: cell-based; conditions: inhibitor constant 4 μg/mL
# Protocol: as §1, §2, §3, §4, §5
# [4] = tested on: E. coli TEM-3; type: cell-based; conditions: β-lactamase TEM-3 (Table 3 r16), inhibitor constant 4 μg/mL
# Protocol: as §1, §2, §3, §4, §5
# [5] = tested on: Escherichia coli OXA-1; test: MIC, characterised β-lactamase producing strain (Example 5, Tables 5-7); type: cell-based
# Protocol: (§6) The MIC experiments were performed in duplicate in 96-well microtiter plates using CAMHB. […] The bacterial suspension with final inoculum 10^5 CFU/mL was transferred to the test medium containing the antibacterial substances. In each well of a 96-well microtiter plate was combined 50 μL of bacterial inoculum, 50 μL of antibiotic dilutions (or media for determination of the MIC of the antibiotic in the absence of test compound). Each plate included 4 wells with no bacterial inoculum (negative control) and 4 wells with no test compound and no antibiotic (positive control). The plates were incubated at 35° C. for 24 h. Purity check and colony counts on each inoculum suspension was performed to ensure that the final inoculum concentration routinely obtained closely approximates 5×10^5 CFU/mL. In addition the assay is routinely monitored by testing standard antibiotics and ensuring that MIC values are within the recommended ranges for the respective strains.
# (§7) This test permits comparisons to be made between bacterial growth in the presence of antibiotic alone and bacterial growth in the presence of both an antibiotic and a novel (test) compound.
# [6] = tested on: Escherichia coli SHV-1; test: as above; type: cell-based
# Protocol: as §6, §7
# [7] = tested on: Escherichia coli FOX-2; test: as above; type: cell-based
# Protocol: as §6, §7
# [8] = tested on: Escherichia coli TEM-9; test: as above; type: cell-based
# Protocol: as §6, §7
# [9] = tested on: Klebsiella pneumoniae TEM-10; test: as above; type: cell-based
# Protocol: as §6, §7
# [10] = tested on: Klebsiella pneumoniae CMY-2; test: as above; type: cell-based
# Protocol: as §6, §7
# [11] = tested on: Escherichia coli TEM-21; test: as above; type: cell-based
# Protocol: as §6, §7
# [12] = tested on: Escherichia coli FOX-1; test: as above; type: cell-based
# Protocol: as §6, §7
# [13] = tested on: Escherichia coli CMY-7; test: as above; type: cell-based
# Protocol: as §6, §7
# [14] = tested on: Escherichia coli OXA-7; test: as above; type: cell-based
# Protocol: as §6, §7
# [15] = tested on: Pseudomonas aeruginosa OXA-6; test: as above; type: cell-based
# Protocol: as §6, §7
# [16] = tested on: Escherichia coli SHV-4; test: as above; type: cell-based
# Protocol: as §6, §7
# [17] = tested on: Klebsiella pneumoniae LAT-2; test: as above; type: cell-based
# Protocol: as §6, §7
# [18] = tested on: Escherichia coli TEM-36; test: as above; type: cell-based
# Protocol: as §6, §7
# [19] = tested on: Escherichia coli CMY-2; test: as above; type: cell-based
# Protocol: as §6, §7
# [20] = tested on: Escherichia coli TEM-8; test: as above; type: cell-based
# Protocol: as §6, §7
# [21] = tested on: Pseudomonas aeruginosa PSE-3; test: as above; type: cell-based
# Protocol: as §6, §7
# [22] = tested on: Escherichia coli CTX-M9; test: MIC, characterised β-lactamase producing strain (Example 5, Table 7); type: cell-based; conditions: CTXM9, combination at constant concentration ratio (2:1)
# Description: (§8) Their MICs were compared with that of cefotaxime, cefotaxime/tazobactam, ceftazidime, ceftazidime/tazobactam, cefepime, cefepime/tazobactam, and piperacillin/tazobactam.
# [23] = tested on: Escherichia coli CTX-M15; test: as above; type: cell-based; conditions: CTXM15, combination at constant concentration ratio (2:1)
# Description: as §8
# [24] = tested on: Klebsiella pneumoniae CTX-M1; test: as above; type: cell-based; conditions: CTXM1, combination at constant concentration ratio (2:1)
# Description: as §8
# [25] = tested on: Klebsiella pneumoniae CTX-M15; test: as above; type: cell-based; conditions: CTXM15, combination at constant concentration ratio (2:1)
# Description: as §8
# [26] = tested on: Klebsiella pneumoniae CTX-M14; test: as above; type: cell-based; conditions: CTXM14, combination at constant concentration ratio (2:1)
# Description: as §8
# [27] = Table 7, combination at constant concentration ratio (2:1)
# [28] = Table 6, LK-157 at constant 4 μg/mL in combination
compound,measurement,setting,value
CC(C)(O/N=C(\C(=O)N[C@@H]1C(=O)N2C(C(=O)[O-])=C(C[n+]3ccccc3)CS[C@H]12)c1csc(N)n1)C(=O)O [ceftazidime],MIC,[1],0.05 µg/mL
same,MIC,[2],0.2 µg/mL
same,MIC,"[3]; β-lactamase TEM-1, first listed (Table 3 r14)",0.2 µg/mL
same,MIC,"[3]; β-lactamase TEM-1, second listed (Table 3 r15)",3.2 µg/mL
same,MIC,[4],> 25.6 µg/mL
same,MIC,[5]; [27],0.25 µg/mL
same,MIC,[6]; [27],0.25 µg/mL
same,MIC,[7]; [27],≧128 μg/mL
same,MIC,"[8]; Table 7, Escherichia coli TEM-9, combination at constant concentration ratio (2:1)",≧128 μg/mL
same,MIC,[9]; [27],≧128 μg/mL
same,MIC,[10]; [27],64 µg/mL
same,MIC,[11]; [27],16 µg/mL
same,MIC,[12]; [27],8 µg/mL
same,MIC,[13]; [27],≧128 μg/mL
same,MIC,[14]; [27],0.5 µg/mL
same,MIC,[15]; [27],2 µg/mL
same,MIC,[16]; [27],≧128 μg/mL
same,MIC,[17]; [27],≧128 μg/mL
same,MIC,[18]; [27],0.5 µg/mL
same,MIC,[19]; [27],≧128 μg/mL
same,MIC,[20]; [27],≧128 μg/mL
same,MIC,[21]; [27],4 µg/mL
same,MIC,[22],2 µg/mL
same,MIC,[23],32 µg/mL
same,MIC,[24],16 µg/mL
same,MIC,[25],32 µg/mL
same,MIC,[26],8 µg/mL
CO/N=C(\C(=O)N[C@@H]1C(=O)N2C(C(=O)O)=C(COC(C)=O)CS[C@H]12)c1csc(N)n1 [cefotaxime],MIC,[5]; [28],0.5 µg/mL
same,MIC,[6]; [28],0.063 µg/mL
same,MIC,[7]; [28],64 µg/mL
same,MIC,[9]; [28],0.5 µg/mL
same,MIC,[10]; [28],16 µg/mL
same,MIC,[11]; [28],32 µg/mL
same,MIC,[12]; [28],2 µg/mL
same,MIC,[13]; [28],32 µg/mL
same,MIC,[14]; [28],0.25 µg/mL
same,MIC,[15]; [28],16 µg/mL
same,MIC,[16]; [28],16 µg/mL
same,MIC,[17]; [28],16 µg/mL
same,MIC,[18]; [28],0.25 µg/mL
same,MIC,[19]; [28],32 µg/mL
same,MIC,[20]; [28],4 µg/mL
same,MIC,[21]; [28],16 µg/mL
CO/N=C(\C(=O)N[C@@H]1C(=O)N2C(C(=O)[O-])=C(C[N+]3(C)CCCC3)CS[C@H]12)c1csc(N)n1 [cefepime],MIC,"[8]; Escherichia coli TEM-9, functional group 2be, LK-157 in combination constant 4 μg/mL",128 µg/mL
